Laboratory results from ChEMBL document CHEMBL4052645, “Discovery of potent and efficacious pyrrolopyridazines as dual JAK1/3 inhibitors” (Bioorg Med Chem Lett, 2017).
Active and inactive are the calls of the source. The rule behind the calls is not given here.

Experiments:
[1] = target: Platelet-derived growth factor receptor alpha (Homo sapiens) (UniProt P16234); assay: Inhibition of wild-type human partial length PDGFRA (V575 to D1002 residues) expressed in mammalian expression system assessed as residual activity at 50 nM by Kinomescan method relative to control
[2] = test system: Mus musculus; assay: Toxicity in collagen-induced arthritis mouse model at 50 mg/kg, po qd; assay type: organism-based; details: in vivo
[3] = test system: Mus musculus; assay: Antiarthritic activity in collagen-induced arthritis mouse model assessed as reduction in inflammation at 10 mg/kg, po qd measured up to 41 days; assay type: functional, organism-based
[4] = test system: Mus musculus; assay: Antiarthritic activity in collagen-induced mouse model assessed as […] at 2 mg/kg, po qd up to 41 days; assay type: functional, organism-based
[5] = Protein binding in human serum; assay type: ADME, cell-free; details: read-out: PB (converted)
[6] = Drug concentration in mouse after 24 hrs; assay type: ADME; details: in vivo, read-out: Drug uptake
[7] = target: NT-3 growth factor receptor (Homo sapiens) (UniProt Q16288); assay: Inhibition of wild-type human partial length TRKC (Q531 to G825 residues) expressed in mammalian expression system assessed as residual activity at 50 nM by Kinomescan method relative to control
[8] = target: Serine/threonine-protein kinase Chk2 (Homo sapiens) (UniProt O96017); assay: Inhibition of wild-type human partial length CHK2 (S253 to E574 residues) expressed in bacterial expression system assessed as residual activity at 50 nM by Kinomescan method relative to control
[9] = Oral bioavailability in mouse; assay type: ADME, organism-based; details: in vivo
[10] = target: Myosin light chain kinase (Homo sapiens) (UniProt Q32MK0); assay: Inhibition of wild-type human partial length CAMLCK (D488 to K800 residues) expressed in bacterial expression system assessed as residual activity at 50 nM by Kinomescan method relative to control
[11] = target: Protein kinase C theta type (Homo sapiens) (UniProt Q04759); assay: Inhibition of wild-type human partial length PKCT (L350 to S706 residues) expressed in bacterial expression system assessed as residual activity at 50 nM by Kinomescan method relative to control
[12] = target: Protein-tyrosine kinase 6 (Homo sapiens) (UniProt Q13882); assay: Inhibition of wild-type human partial length BRK (L166 to T451 residues) expressed in bacterial expression system assessed as residual activity at 50 nM by Kinomescan method relative to control
[13] = Drug concentration in mouse at 2 mg/kg, po qd after 24 hrs; assay type: ADME, organism-based; details: in vivo, read-out: Drug uptake
[14] = species: Mus musculus; assay: animal or person; details: Balb/c, 24 h
[15] = target: Dual specificity mitogen-activated protein kinase kinase 3 (Homo sapiens) (UniProt P46734); assay: Inhibition of wild-type human full length MAP2K3 (M1 to S318 residues) expressed in mammalian expression system assessed as residual activity at 50 nM by Kinomescan method relative to control
[16] = target: Cyclin-dependent kinase-like 2 (Homo sapiens) (UniProt Q92772); assay: Inhibition of wild-type human partial length CDKL2 (M1 to D327 residues) expressed in bacterial expression system assessed as residual activity at 50 nM by Kinomescan method relative to control
[17] = Protein binding in mouse plasma at 10 mg/kg, po; assay type: ADME, organism-based; details: read-out: PPB (converted)
[18] = Half life in Sprague-Dawley rat at 2 mg/kg, iv; assay type: ADME, organism-based; details: in vivo
[19] = target: Serine/threonine-protein kinase NIM1 (Homo sapiens) (UniProt Q8IY84); assay: Inhibition of wild-type human partial length NIM1 (Q44 to N355 residues) expressed in mammalian expression system assessed as residual activity at 50 nM by Kinomescan method relative to control
[20] = species: Homo sapiens; assay: Inhibition of calcium channel (unknown origin) at 10 uM by patch clamp assay
[21] = Half life in BALB/c mouse at 2 mg/kg, iv; assay type: ADME, organism-based; details: in vivo
[22] = Oral bioavailability in Sprague-Dawley rat at 10 mg/kg; assay type: ADME, organism-based; details: in vivo
[23] = Oral bioavailability in BALB/c mouse at 10 mg/kg; assay type: ADME, organism-based; details: in vivo
[24] = target: Ephrin type-B receptor 2 (Homo sapiens) (UniProt P29323); assay: Inhibition of wild-type human partial length EPHB2 (I597 to L902 residues) expressed in bacterial expression system assessed as residual activity at 50 nM by Kinomescan method relative to control
[25] = Half life in Sprague-Dawley rat at 10 mg/kg, po; assay type: ADME, organism-based; details: in vivo
[26] = target: Serine/threonine-protein kinase 16 (Homo sapiens) (UniProt O75716); assay: Inhibition of wild-type human partial length STK16 (G11 to I305 residues) expressed in bacterial expression system assessed as residual activity at 50 nM by Kinomescan method relative to control
[27] = Half life in BALB/c mouse at 10 mg/kg, po; assay type: ADME, organism-based; details: in vivo
[28] = test system: Rattus norvegicus; assay: Cardiotoxicity in rat assessed as decrease in blood pressure at 30 mg/kg, po; assay type: toxicity, organism-based; design: scale not given: the % may be the effect or the level left; details: in vivo
[29] = Inhibition of ACTR2 (unknown origin) assessed as residual activity at 50 nM by Kinomescan method relative to control; details: Homo sapiens
[30] = target: Nuclear receptor subfamily 1 group I member 2 (Homo sapiens, UniProt O75469); assay: Activation of PXR (unknown origin); assay type: ADME
[31] = species: Homo sapiens; assay: Inhibition of sodium channel (unknown origin) at 10 uM by patch clamp assay
[32] = target: Tyrosine-protein kinase Fgr (Homo sapiens) (UniProt P09769); assay: Inhibition of wild-type human partial length FGR (L233 to T529 residues) expressed in bacterial expression system assessed as residual activity at 50 nM by Kinomescan method relative to control
[33] = test system: Rattus norvegicus; assay: Toxicity in rat assessed as mortality at 200 mg/kg; assay type: organism-based; details: in vivo
[34] = Protein binding in human plasma; assay type: ADME, cell-free; details: read-out: PPB (converted)
[35] = Cmax in BALB/c mouse at 10 mg/kg, po; assay type: ADME, organism-based; design: dose 10 mg/kg, route oral; details: in vivo
[36] = test system: Rattus norvegicus; assay: Cardiotoxicity in rat assessed as decrease in mean arterial blood pressure at 200 mg/kg; assay type: toxicity, organism-based; details: in vivo
[37] = Cmax in Sprague-Dawley rat at 10 mg/kg, po; assay type: ADME, organism-based; design: dose 10 mg/kg, route oral; details: in vivo
[38] = target: Serine/threonine-protein kinase DCLK2 (Homo sapiens) (UniProt Q8N568); assay: Inhibition of wild-type human partial length DCAMKL2 (K273 to V664 residues) expressed in bacterial expression system assessed as residual activity at 50 nM by Kinomescan method relative to control
[39] = AUC in Sprague-Dawley rat at 2 mg/kg, iv; assay type: ADME, organism-based; details: in vivo
[40] = target: Tyrosine-protein kinase Lyn (Homo sapiens) (UniProt P07948); assay: Inhibition of wild-type human partial length LYN (C219 to Q511 residues) expressed in bacterial expression system assessed as residual activity at 50 nM by Kinomescan method relative to control
[41] = test system: Oryctolagus cuniculus; assay: Cardiotoxicity in rabbit assessed as decrease in mean arterial blood pressure at >3 mg/kg; assay type: toxicity, organism-based; details: in vivo
[42] = Volume of distribution at steady state in Sprague-Dawley rat at 2 mg/kg, iv; assay type: ADME, organism-based; details: in vivo, read-out: Vdss

Sequence of Myosin light chain kinase (Homo sapiens) (Q32MK0 whole entry, the tested form may be a part): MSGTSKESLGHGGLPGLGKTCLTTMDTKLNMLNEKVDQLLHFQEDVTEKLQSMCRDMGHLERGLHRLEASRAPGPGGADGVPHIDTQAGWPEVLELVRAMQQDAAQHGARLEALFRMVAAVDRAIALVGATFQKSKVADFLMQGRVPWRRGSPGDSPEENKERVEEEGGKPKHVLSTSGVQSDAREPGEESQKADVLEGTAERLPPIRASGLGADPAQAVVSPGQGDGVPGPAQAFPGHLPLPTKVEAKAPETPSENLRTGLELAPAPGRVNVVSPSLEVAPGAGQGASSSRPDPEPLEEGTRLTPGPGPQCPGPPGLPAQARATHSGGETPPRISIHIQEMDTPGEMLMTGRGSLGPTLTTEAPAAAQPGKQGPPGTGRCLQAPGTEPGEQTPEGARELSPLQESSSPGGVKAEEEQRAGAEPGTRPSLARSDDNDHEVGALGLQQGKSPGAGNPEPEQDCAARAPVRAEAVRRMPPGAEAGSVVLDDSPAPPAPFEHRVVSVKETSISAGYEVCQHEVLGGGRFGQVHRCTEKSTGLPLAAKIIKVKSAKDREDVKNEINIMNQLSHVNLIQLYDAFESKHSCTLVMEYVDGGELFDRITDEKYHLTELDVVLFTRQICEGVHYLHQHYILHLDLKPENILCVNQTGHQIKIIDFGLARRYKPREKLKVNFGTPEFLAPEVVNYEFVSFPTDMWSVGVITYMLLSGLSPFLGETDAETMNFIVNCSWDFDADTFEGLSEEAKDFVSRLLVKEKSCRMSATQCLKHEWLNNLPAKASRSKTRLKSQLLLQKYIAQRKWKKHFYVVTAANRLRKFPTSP
Sequence of Serine/threonine-protein kinase Chk2 (Homo sapiens) (O96017 whole entry, the tested form may be a part): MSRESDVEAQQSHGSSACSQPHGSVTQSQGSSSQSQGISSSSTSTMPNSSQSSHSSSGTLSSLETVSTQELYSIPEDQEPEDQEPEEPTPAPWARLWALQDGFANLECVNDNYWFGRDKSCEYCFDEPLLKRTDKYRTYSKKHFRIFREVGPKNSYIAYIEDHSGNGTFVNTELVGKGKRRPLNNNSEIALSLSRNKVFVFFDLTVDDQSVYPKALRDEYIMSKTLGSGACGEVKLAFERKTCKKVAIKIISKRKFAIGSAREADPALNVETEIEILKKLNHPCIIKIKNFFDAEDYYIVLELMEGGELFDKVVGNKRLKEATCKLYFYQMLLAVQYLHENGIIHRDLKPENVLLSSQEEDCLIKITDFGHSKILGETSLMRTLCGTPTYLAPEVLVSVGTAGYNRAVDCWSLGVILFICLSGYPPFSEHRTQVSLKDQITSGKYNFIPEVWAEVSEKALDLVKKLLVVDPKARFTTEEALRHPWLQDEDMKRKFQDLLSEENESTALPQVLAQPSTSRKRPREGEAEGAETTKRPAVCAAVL
Sequence of NT-3 growth factor receptor (Homo sapiens) (Q16288 32-839 limits assumed): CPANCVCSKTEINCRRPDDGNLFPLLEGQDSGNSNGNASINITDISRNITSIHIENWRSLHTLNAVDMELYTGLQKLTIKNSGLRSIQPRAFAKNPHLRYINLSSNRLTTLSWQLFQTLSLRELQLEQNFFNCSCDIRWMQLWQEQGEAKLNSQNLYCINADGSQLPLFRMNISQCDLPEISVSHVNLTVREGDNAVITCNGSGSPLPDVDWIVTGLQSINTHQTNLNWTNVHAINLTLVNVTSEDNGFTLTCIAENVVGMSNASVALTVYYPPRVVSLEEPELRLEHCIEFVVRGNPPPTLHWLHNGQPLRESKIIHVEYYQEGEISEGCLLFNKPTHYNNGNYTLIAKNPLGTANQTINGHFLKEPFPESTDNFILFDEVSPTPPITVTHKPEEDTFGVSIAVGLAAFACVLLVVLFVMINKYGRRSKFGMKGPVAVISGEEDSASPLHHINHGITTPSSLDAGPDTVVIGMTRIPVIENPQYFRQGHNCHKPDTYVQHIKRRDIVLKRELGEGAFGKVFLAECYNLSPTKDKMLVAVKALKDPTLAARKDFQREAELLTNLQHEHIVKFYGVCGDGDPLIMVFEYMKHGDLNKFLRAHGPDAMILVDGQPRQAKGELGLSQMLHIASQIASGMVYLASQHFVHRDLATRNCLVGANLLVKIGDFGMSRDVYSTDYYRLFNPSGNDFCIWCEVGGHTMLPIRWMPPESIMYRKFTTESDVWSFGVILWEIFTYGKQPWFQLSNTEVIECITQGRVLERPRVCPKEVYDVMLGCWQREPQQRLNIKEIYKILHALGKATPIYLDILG
Sequence of Protein-tyrosine kinase 6 (Homo sapiens) (Q13882 whole entry, looked up, the tested form may be a part): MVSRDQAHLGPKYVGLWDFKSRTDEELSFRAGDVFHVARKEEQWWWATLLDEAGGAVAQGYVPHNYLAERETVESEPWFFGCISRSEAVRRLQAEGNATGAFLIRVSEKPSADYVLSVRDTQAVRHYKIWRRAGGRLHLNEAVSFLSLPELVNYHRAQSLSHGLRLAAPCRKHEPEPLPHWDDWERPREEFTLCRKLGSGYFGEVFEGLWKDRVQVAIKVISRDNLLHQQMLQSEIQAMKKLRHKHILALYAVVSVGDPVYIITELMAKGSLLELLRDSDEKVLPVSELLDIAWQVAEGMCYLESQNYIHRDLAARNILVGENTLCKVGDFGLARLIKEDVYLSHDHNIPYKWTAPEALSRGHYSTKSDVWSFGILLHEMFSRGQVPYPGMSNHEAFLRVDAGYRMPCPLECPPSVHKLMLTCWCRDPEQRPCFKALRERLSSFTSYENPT
Sequence of Platelet-derived growth factor receptor alpha (Homo sapiens) (P16234 whole entry, the tested form may be a part): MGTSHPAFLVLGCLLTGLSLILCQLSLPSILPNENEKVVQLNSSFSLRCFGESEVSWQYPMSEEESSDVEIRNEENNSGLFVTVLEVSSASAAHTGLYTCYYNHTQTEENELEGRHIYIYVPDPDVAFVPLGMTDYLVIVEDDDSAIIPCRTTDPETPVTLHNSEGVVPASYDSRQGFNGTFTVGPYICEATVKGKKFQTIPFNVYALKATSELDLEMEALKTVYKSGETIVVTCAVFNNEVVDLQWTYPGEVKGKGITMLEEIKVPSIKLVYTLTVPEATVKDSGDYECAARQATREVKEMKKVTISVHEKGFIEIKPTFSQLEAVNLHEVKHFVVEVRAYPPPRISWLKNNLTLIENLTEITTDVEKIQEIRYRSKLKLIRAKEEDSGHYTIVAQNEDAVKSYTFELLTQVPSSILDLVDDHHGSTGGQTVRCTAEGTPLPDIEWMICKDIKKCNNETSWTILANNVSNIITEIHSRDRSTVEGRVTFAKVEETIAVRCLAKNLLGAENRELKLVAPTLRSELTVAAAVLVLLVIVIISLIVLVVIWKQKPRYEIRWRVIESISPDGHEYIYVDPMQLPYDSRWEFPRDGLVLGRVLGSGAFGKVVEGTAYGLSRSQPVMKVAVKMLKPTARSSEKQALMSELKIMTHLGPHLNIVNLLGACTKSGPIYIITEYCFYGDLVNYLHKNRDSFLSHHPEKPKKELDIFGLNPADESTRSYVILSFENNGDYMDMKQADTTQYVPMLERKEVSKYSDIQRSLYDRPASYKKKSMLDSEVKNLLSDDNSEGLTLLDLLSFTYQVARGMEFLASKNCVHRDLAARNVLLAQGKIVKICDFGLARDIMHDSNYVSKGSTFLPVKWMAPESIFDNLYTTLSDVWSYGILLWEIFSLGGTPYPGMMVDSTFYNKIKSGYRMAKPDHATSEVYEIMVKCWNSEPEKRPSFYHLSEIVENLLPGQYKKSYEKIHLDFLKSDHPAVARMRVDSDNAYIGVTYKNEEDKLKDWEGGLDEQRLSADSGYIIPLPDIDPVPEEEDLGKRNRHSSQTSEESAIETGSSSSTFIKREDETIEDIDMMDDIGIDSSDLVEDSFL
Sequence of Dual specificity mitogen-activated protein kinase kinase 3 (Homo sapiens) (P46734 whole entry, the tested form may be a part): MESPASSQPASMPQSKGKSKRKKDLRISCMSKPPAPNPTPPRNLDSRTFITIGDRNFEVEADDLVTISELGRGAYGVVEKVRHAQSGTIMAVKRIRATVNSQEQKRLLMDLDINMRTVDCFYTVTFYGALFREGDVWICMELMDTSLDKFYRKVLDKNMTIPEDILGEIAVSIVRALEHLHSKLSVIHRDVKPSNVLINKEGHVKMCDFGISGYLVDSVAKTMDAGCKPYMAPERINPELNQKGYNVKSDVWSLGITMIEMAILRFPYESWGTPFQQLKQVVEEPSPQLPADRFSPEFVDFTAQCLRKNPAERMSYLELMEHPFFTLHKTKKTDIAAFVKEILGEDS
Sequence of Protein kinase C theta type (Homo sapiens) (Q04759 whole entry, looked up, the tested form may be a part): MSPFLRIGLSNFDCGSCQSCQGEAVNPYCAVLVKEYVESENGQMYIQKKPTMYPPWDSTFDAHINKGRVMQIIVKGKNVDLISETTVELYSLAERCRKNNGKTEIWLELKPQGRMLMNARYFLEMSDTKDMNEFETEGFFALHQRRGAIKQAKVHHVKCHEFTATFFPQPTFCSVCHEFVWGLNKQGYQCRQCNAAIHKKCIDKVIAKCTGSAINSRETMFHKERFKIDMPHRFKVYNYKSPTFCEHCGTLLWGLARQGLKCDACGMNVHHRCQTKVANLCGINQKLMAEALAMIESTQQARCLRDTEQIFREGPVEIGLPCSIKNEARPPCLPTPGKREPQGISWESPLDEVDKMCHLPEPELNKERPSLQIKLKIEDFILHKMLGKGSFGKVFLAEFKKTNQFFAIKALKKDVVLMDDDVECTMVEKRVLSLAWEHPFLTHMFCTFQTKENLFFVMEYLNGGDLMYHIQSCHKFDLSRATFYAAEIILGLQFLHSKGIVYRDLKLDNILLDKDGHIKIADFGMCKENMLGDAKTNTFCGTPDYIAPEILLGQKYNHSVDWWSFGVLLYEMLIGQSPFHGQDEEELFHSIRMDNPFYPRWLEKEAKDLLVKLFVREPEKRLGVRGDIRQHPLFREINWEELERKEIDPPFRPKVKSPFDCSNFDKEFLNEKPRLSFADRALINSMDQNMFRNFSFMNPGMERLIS

CC1(C)[C@H](Nc2c(C(N)=O)cnn3cc(-c4ccccc4)cc23)CC[C@]1(C)N
Activity [1]: 67% | Activity [2]: Toxic | Activity [3]: Active | Activity [4]: inactive | fraction unbound [5]: 0.52 | concentration at 24 h [6]: 0.23 µM | Activity [7]: 100% | Activity [8]: 100% | bioavailability [9]: 67% | Activity [10]: 100% | Activity [11]: 38% | Activity [12]: 100% | concentration at 24 h [13]: 0.06 µM | IC50 [14]: 0.27 µM | Activity [15]: 96%

COc1ccc(-c2cc3c(N[C@@H]4CC[C@](C)(N)C4(C)C)c(C(N)=O)cnn3c2)cn1
Activity [1]: 97% | Activity [16]: 93% | fraction unbound [17]: 0.07 | half-life [18]: 9.8 h | Activity [19]: 90% | inhibition [20]: 16% | half-life [21]: 6.5 h | bioavailability [22]: 44% | bioavailability [23]: 73% | Activity [24]: 100% | half-life [25]: 12.2 h | Activity [26]: 87% | half-life [27]: 10.2 h | Activity [28]: 14% | Activity [29]: 100% | EC50 [30]: > 17 µM | Activity [7]: 100% | inhibition [31]: 71% | Activity [8]: 100% | Activity [32]: 99% | Activity [33]: Toxic | fraction unbound [34]: 0.1 | Cmax [35]: 1.1 µM | Activity [10]: 100% | Activity [11]: 74% | Activity [12]: 96% | Activity [36]: Toxic | Cmax [37]: 0.6 µM | Activity [38]: 100% | Activity [15]: 92% | AUC [39]: 5.8 µM·h | Activity [40]: 100% | Activity [41]: Toxic | Vd [42]: 11.5 L/kg
